From US7687651B2, “Method for the preparation of trans-or cis-diammoniumdichlorodihydroxoplatinum(IV) and the use thereof in the production of pharmaceutical active substances” (priority 2003, dated 2010)
Several values for one entry are separate records, joined by “and”; a condition that tells them apart may be missing. Identical values can stand only once.

Tests used:
Assay type in all cases: cell-based, human
[1] = tested on: HCT-15 Colon carcinoma; experiment: Cytotoxic activity of trans-oxoplatin, HCT-15
Procedure: (§1) trans-Oxoplatin was tested on a panel of cell lines, using double steps and an initial concentration of 40 μg/ml. As the IC50 values were not reached in most cases, cell survival at the highest concentration is indicated.

[2] = tested on: ASTRO Astrocytoma; experiment: Cytotoxic activity of trans-oxoplatin, ASTRO
Procedure: as §1

[3] = tested on: K562 Leukemia; experiment: Cytotoxic activity of trans-oxoplatin, K562
Procedure: as §1

[4] = tested on: MDA-MB-231 Breast cancer; experiment: Cytotoxic activity of trans-oxoplatin, MDA-MB-231; conditions: several values given
Procedure: as §1

[5] = tested on: BxPC3 Pancreatic carcinoma; experiment: Cytotoxic activity of trans-oxoplatin, BxPC3
Procedure: as §1

[6] = tested on: WI-38 Embryonic lung fibroblasts; experiment: Cytotoxic activity of trans-oxoplatin, WI-38
Procedure: as §1

[7] = tested on: G-292 Osteosarcoma; experiment: Cytotoxic activity of trans-oxoplatin, G-292; conditions: G-292 osteosarcoma cell line
Procedure: as §1

[8] = tested on: U-87-MG Astrocytoma; experiment: Cytotoxic activity of trans-oxoplatin, U-87-MG
Procedure: as §1

[9] = tested on: Fib3 Fibroblasts; experiment: Cytotoxic activity of trans-oxoplatin, Fib3
Procedure: as §1

[10] = tested on: CRO1A Carcinoid; experiment: Cytotoxic activity of trans-oxoplatin, CRO1A; conditions: several values given
Procedure: as §1

[11] = tested on: COLO 205 Colon carcinoma; experiment: Cytotoxic activity of trans-oxoplatin, COLO 205
Procedure: as §1

[12] = tested on: Panc1 Pancreatic cancer; experiment: Cytotoxic activity of trans-oxoplatin, PANC1
Procedure: as §1

[13] = tested on: SW620 Colon carcinoma; experiment: Cytotoxic activity of trans-oxoplatin, SW620; conditions: SW 620 colon carcinoma cell line
Procedure: as §1

[14] = tested on: ACHN Renal carcinoma; experiment: Cytotoxic activity of trans-oxoplatin, ACHN
Procedure: as §1

[15] = tested on: MiaPaCa2 Pancreatic cancer; experiment: Cytotoxic activity of trans-oxoplatin, MIAPaCa2; conditions: several values given
Procedure: as §1

[16] = tested on: HL-60 Leukemia; experiment: Cytotoxic activity of trans-oxoplatin, HL-60
Procedure: as §1

[17] = tested on: HOS Osteosarcoma; experiment: Cytotoxic activity of trans-oxoplatin, HOS
Procedure: as §1

[18] = tested on: T-47D breast cancer; experiment: Cytotoxic activity of trans-oxoplatin, T-47D
Procedure: as §1

[19] = tested on: HT29 Colon carcinoma; experiment: Growth inhibition test on HT29 cells
Procedure: (§2) The effect of cis-oxoplatin Ca and cis-oxoplatin was compared on 10 cell lines (Table 4).
(§3) (IC50 values specified in μg/ml; the test was performed as a formazan test).

[20] = tested on: BxPC3 Pancreatic cancer; experiment: Growth inhibition test on BxPC3 cells
Procedure: as §2, §3

[21] = tested on: Colo205 Colon carcinoma; experiment: Growth inhibition test on Colo205 cells
Procedure: as §2, §3

[22] = tested on: C320DM Colon carcinoma; experiment: Growth inhibition test on C320DM cells; conditions: Table 1
Procedure: (§4) Growth inhibition tests on various human cell lines show the different activities of cisplatin, cis-oxoplatin and oxaliplatin. […] The following Table illustrates the results produced with cisplatin, oxoplatin, carboplatin and oxaliplatin (the values specified are IC50 values in μg/ml, i.e., the concentration where 50% of the cells survive, nd=not determined; res=resistant=non-sensitive or IC50 value cannot be determined at a concentration of up to 40 μg/ml; IC=inhibition concentration).

[23] = tested on: HOS Osteosarcoma; experiment: Growth inhibition test on HOS cells; conditions: Table 1
Procedure: as §4

[24] = tested on: A498 Renal cells; experiment: Growth inhibition test on A498 cells; conditions: Table 1
Procedure: as §4

[25] = tested on: MiaPaCa2 Pancreatic cancer; experiment: Growth inhibition test on MiaPaCa2 cells; conditions: Table 1
Procedure: as §4

[26] = tested on: M607 Melanoma; experiment: Growth inhibition test on M607 cells; conditions: Table 1
Procedure: as §4

[27] = tested on: Panc1 Pancreatic cancer; experiment: Growth inhibition test on Panc1 cells; conditions: Table 1
Procedure: as §4

[28] = tested on: Du145 Prostate; experiment: Growth inhibition test on Du145 cells; conditions: Du145 Prostate
Procedure: as §2, §3

[29] = tested on: LAN1 (NB); experiment: Effect on cell lines of typical tumors in children, LAN1; conditions: Table 3
From the text: (§5) What is seen primarily in children are leukemias, neuroblastomas and Ewing's sarcoma/peripheral neuroectodermal tumors (group of the Ewing family of tumors=EFT). The investigated tumor cell lines include three EFTs (EW-7, SIM and KAL), as well as two neuroblastoma cell lines (NB: LAN1 and LAN5; Los Angeles neuroblastoma=LAN) (see Table 3).

[30] = tested on: M518 Melanoma; experiment: Growth inhibition test on M518 cells; conditions: Table 1
Procedure: as §4

[31] = tested on: JVSO Melanoma; experiment: Growth inhibition test on JVSO cells; conditions: Table 1
Procedure: as §4

[32] = tested on: LAN5 (NB); experiment: Effect on cell lines of typical tumors in children, LAN5; conditions: Table 3
From the text: as §5

[33] = tested on: SaOS Osteosarcoma; experiment: Growth inhibition test on SaOS cells; conditions: Table 1
Procedure: as §4

[34] = tested on: SIM Sarcoma; experiment: Growth inhibition test on SIM cells
Procedure: as §4, §5

[35] = tested on: CRO2B Carcinoid; experiment: Growth inhibition test on CRO2B cells; conditions: CRO2B Carcinoid
Procedure: as §2, §3

[36] = tested on: HCT8 Colon carcinoma; experiment: Growth inhibition test on HCT8 cells; conditions: Table 1
Procedure: as §4

[37] = tested on: HT29, SW480, SK-OV4, PC3, SIM, CaCO-2, DU145 and CRO2B cells; experiment: Growth inhibition, IC50 over eight cell lines of Table 2; conditions: CaCO-2, DU145, CRO2B
Procedure: as §4
The activities differ according to the cell line.

[38] = tested on: EW-7 (EFT); experiment: Effect on cell lines of typical tumors in children, EW-7; conditions: Table 3
From the text: as §5

[39] = tested on: SK-OV3 Ovarian cancer; experiment: Growth inhibition test on SK-OV3 cells; conditions: Table 2
Procedure: as §4

[40] = tested on: MDA-MB-435 Breast; experiment: Formazan test on MDA-MB-435 cells; conditions: Table 4
Procedure: as §2, §3

[41] = tested on: PC3 Prostate; experiment: Growth inhibition test on PC3 cells; conditions: for % Survival: PC3 cells; for IC50: PC3 Prostate
Procedure: as §4

[42] = tested on: CC1227 Colon carcinoma; experiment: Growth inhibition test on CC1227 cells; conditions: Table 1
Procedure: as §4

[43] = tested on: SW480 Colon; experiment: Growth inhibition test on SW480 cells; conditions: SW480 Colon
Procedure: as §2, §3

[44] = tested on: HCT-15 Colon carcinoma; experiment: Growth inhibition test on HCT-15 cells; conditions: Table 1
Procedure: as §4

[45] = tested on: T47D Breast cancer; experiment: Growth inhibition test on T47D cells
Procedure: as §2, §3

[46] = tested on: Me128 Melanoma; experiment: Growth inhibition test on Me128 cells; conditions: Table 1
Procedure: as §4

[47] = tested on: CaCo-2 Colon; experiment: Growth inhibition test on CaCo-2 cells; conditions: CaCo-2 Colon
Procedure: as §2, §3

[48] = tested on: BT20 Breast; experiment: Formazan test on BT20 cells; conditions: Table 4
Procedure: as §2, §3

[49] = tested on: U 373 MG Astrocytoma; experiment: Growth inhibition test on U 373 MG cells; conditions: Table 2
Procedure: as §4

[50] = tested on: 10 cell lines (Table 4); experiment: Formazan test, IC50 mean value for all cell lines of Table 4; conditions: mean over the 10 cell lines of Table 4
Procedure: as §2, §3

[51] = tested on: MCF-7 Breast cancer; experiment: Growth inhibition test on MCF-7 cells; conditions: Table 1
Procedure: as §4

[52] = tested on: SK-OV4 Ovarian cancer; experiment: Growth inhibition test on SK-OV4 cells; conditions: Table 2; SK-OV4 Ovarian cancer
Procedure: as §4

[NH2][Pt]([NH2])([OH])([OH])([Cl])[Cl] [TRAXO, trans-Oxoplatin]
% Survival with 40 μg/ml TRAXO [1]: 100% | % Survival with TRAXO (20 μg/ml indicated) ([2]; 20 μg/ml): 82% | % Survival with 40 μg/ml TRAXO ([2]; 40 μg/ml): 71% | % Survival with 40 μg/ml TRAXO [3]: 97% | % Survival with 40 μg/ml TRAXO [4]: 70% and 103% and 106% | sensitivity of the cell line [5]: non-sensitive | % Survival with 40 μg/ml TRAXO ([5]; 40 μg/ml): 106% | % Survival with 40 μg/ml TRAXO ([6]; WI-38, 40 μg/ml): 21% | activity against the cell line ([6]; WI-38 embryonic pulmonary fibroblast cell line): considerable activity | activity against the cell line [7]: considerable activity | % Survival with 40 μg/ml TRAXO [8]: 100% | % Survival with 40 μg/ml TRAXO [9]: 91% | % Survival with 40 μg/ml TRAXO [10]: 87% and 104% and 70% | % Survival with 40 μg/ml TRAXO [11]: 109% | % Survival with 40 μg/ml TRAXO [12]: 100% | activity against the cell line [13]: considerable activity | activity against the cell line ([14]; ACHN renal carcinoma cell line): considerable activity | % Survival with 40 μg/ml TRAXO ([14]; ACHN, 40 μg/ml): 48% | % Survival with 40 μg/ml TRAXO [15]: 92% and 83% | % Survival with 40 μg/ml TRAXO ([16]; HL-60, 40 μg/ml): 0.5% | activity against the cell line ([16]; HL-60 leukemia cell line): considerable activity | activity against the cell line ([17]; HOS osteosarcoma cell line): considerable activity | % Survival with 40 μg/ml TRAXO ([17]; HOS, 40 μg/ml): 4.3% | sensitivity of the cell line [18]: non-sensitive | % Survival with 40 μg/ml TRAXO ([18]; 40 μg/ml): 101%

N.N.[Cl-].[Cl-].[OH-].[OH-].[Pt+4] [cis-Oxoplatin, cis-diammoniumdichlorodihydroxoplatinum(IV)]
IC50 ([19]; Table 1, HT29 Colon carcinoma): 20 µg/mL | IC50 ([19]; Table 2, HT29 Colon): 13.5 µg/mL | IC50 ([19]; Table 4, HT29 Colon, formazan test): 13.5 µg/mL | IC50 ([20]; Table 1, BxPC3 Pancreatic cancer): 2.5 µg/mL | IC50 ([20]; Table 2, BxPC3 Pancreatic carcinoma): 13 µg/mL | IC50 ([20]; Table 4, BxPC3 Pancreas, formazan test): 26.0 µg/mL | IC50 ([21]; Table 1, Colo205 Colon carcinoma): res (res=resistant=non-sensitive or IC50 value cannot be determined at a concentration of up to 40 μg/ml) | IC50 ([21]; Table 4, Colo205 Colon, formazan test): 29.0 µg/mL | IC50 [22]: 2.5 µg/mL | IC50 [23]: 2.5 µg/mL | IC50 [24]: 20 µg/mL | IC50 [25]: 5 µg/mL | IC50 [26]: 5 µg/mL | IC50 [27]: 40 µg/mL | IC50 ([28]; Table 2): 19.0 µg/mL | IC50 ([28]; Table 4, formazan test): 19.0 µg/mL | IC50 [29]: 17 µg/mL | IC50 [30]: res (res=resistant=non-sensitive or IC50 value cannot be determined at a concentration of up to 40 μg/ml) | IC50 [31]: 10 µg/mL | IC50 [32]: 3.5 µg/mL | IC50 [33]: 5 µg/mL | IC50 ([34]; Table 2, SIM Sarcoma): 15.2 µg/mL | IC50 ([34]; Table 3, SIM (EFT)): 14 µg/mL | IC50 ([35]; Table 2): 3.0 µg/mL | IC50 ([35]; Table 4, formazan test): 3.0 µg/mL | IC50 [36]: 40 µg/mL | IC50 values of these cells (mean ± spread) [37]: 10.5 ± 6.4 µg/mL | IC50 [38]: 1.25 µg/mL | IC50 [39]: 15 µg/mL | IC50 [40]: 16.5 µg/mL | % Survival ([41]; Conc. 5 μg/ml): 105.2 ± 10.8% | % Survival ([41]; Conc. 10 μg/ml): 87.4 ± 11.8% | % Survival ([41]; Conc. 20 μg/ml): 56.7 ± 6.3% | % Survival ([41]; Conc. 40 μg/ml): 15.8 ± 2.7% | IC50 ([41]; Table 1): 7.5 µg/mL | IC50 ([41]; Table 2): 7.5 µg/mL | IC50 [42]: 10 µg/mL | IC50 ([43]; Table 2): 8.2 µg/mL | IC50 ([43]; Table 4, formazan test): 8.2 µg/mL | IC50 [44]: 20 µg/mL | IC50 ([45]; Table 1, T47D Breast cancer): 2.5 µg/mL | IC50 ([45]; Table 2, T47D Breast cancer): 3 µg/mL | IC50 ([45]; Table 4, T47D Breast, formazan test): 2.5 µg/mL | IC50 [46]: 2.5 µg/mL | IC50 ([47]; Table 2): 1.52 µg/mL | IC50 ([47]; Table 4, formazan test): 1.52 µg/mL | IC50 [48]: 3.75 µg/mL | IC50 [49]: 15 µg/mL | IC50 (±SEM) mean value for all cell lines [50]: 12.3 ± 3.2 µg/mL | IC50 [51]: 5.5 µg/mL | IC50 [52]: 16.2 µg/mL
